In US20050153856A1, “Methods and compositions for killing spores” (priority 2002, published 2005):

Test system: Bacillus thuringiensis spores
Assay: Killing of spores (Example 2): microtiter serial 10-fold dilution, growth read with MTT
Type: cell-based
Details: wells 7-8: KI only, no laccase, no methylsyringate, 1 hour 24 degrees Celsius pH 6.5
Description: Spore suspension was pipetted into the wells in row A of a microtiter plate. The reaction was initiated by the addition of laccase solution.
The microtiter plate was incubated at room temperature (24 degrees Celsius) for 1 hour.
In the tables growth is indicated with a “+” symbol.

Measured: growth

[I-].[K+] [KI, Potassium iodide]
+: 10-fold dilution step 4 | listed as B, 10-fold dilution step 1 | listed as C, 10-fold dilution step 2 | listed as D, 10-fold dilution step 3 | listed as F, 10-fold dilution step 5 | listed as G, 10-fold dilution step 6
